The values below are quoted from earlier work in patent US20250262254A1, “THERAPEUTIC COMPOSITIONS AND METHODS OF USING SEROTONIN MODULATING MICROBIOME-BASED INTERVENTIONS TO TREAT SEROTONIN-RELATED DISEASES OR DISORDERS” (HOLOBIOME, INC, priority 2019, published 2025).

Each structure is given as a SMILES string.

In the series the test system is mouse model. The settings on record: microbiota-derived tryptamine.

Consider `NCCc1c[nH]c2ccccc12` [tryptamine], for which the GI transit entry is on record as “accelerate GI transit”.
